Measured values: ChEMBL document CHEMBL1201862, “PubChem BioAssay data set” (2004)
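All cell lines were grown in 96-well plates and treated with compound for 48 hours. Abbreviation: GI50, concentration required for 50% inhibition of growth.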 Calls of active or inactive are those of the source. No stated cut-off is given here; in the data, active = GI50 up to about 1.1 µM and inactive = higher.

Tests used:
Assay in all cases: inhibition of tumour cell growth, NCI panel, 48 h
[1] = test system: A549
[2] = test system: CCRF-CEM
[3] = test system: COLO 205
[4] = test system: DU-145
[5] = test system: EKVX
[6] = test system: HCT-15
[7] = test system: HOP-62
[8] = test system: K562
[9] = test system: M14
[10] = test system: MDA-MB-435
[11] = test system: NCI-H460
[12] = test system: OVCAR-4
[13] = test system: SF-268
[14] = test system: SF-295
[15] = test system: SK-MEL-28
[16] = test system: SK-MEL-2
[17] = test system: SK-OV-3
[18] = test system: SN12C
[19] = test system: SNB-75
[20] = test system: HL-60

Row | Structure (SMILES) | GI50 [1] | GI50 [2] | GI50 [3] | GI50 [4] | GI50 [5] | GI50 [6] [µM] | GI50 [7] | GI50 [8] | GI50 [9] | GI50 [10] | GI50 [11] | GI50 [12] | GI50 [13] | GI50 [14] | GI50 [15] | GI50 [16] | GI50 [17] | GI50 [18] | GI50 [19] | GI50 [20]
1 | COC(=O)c1sc(=O)sc1SCc1cccc(CSc2sc(=O)sc2C(=O)OC)c1 | 51.4 µM (inactive) | 50.5 µM (inactive) | > 100 µM (inactive) | 92.3 µM (inactive) | 42.8 µM (inactive) | > 100 | 16 µM (inactive) | 43.3 µM (inactive) | 36.4 µM (inactive) | 60.1 µM (inactive) | 35.1 µM (inactive) | 15.9 µM (inactive) | 27.3 µM (inactive) | 26.2 µM (inactive) | 55.8 µM (inactive) | 47.9 µM (inactive) | 22.7 µM (inactive) | 39.7 µM (inactive) |  | 
2 | O=C(O)c1cc(Cl)cc2c1NC1(N2)C(=O)Nc2ccccc21 (stereo not drawn) | > 100 µM (inactive) | > 100 µM (inactive) | > 100 µM (inactive) | > 100 µM (inactive) | > 100 µM (inactive) | 45.4 | > 100 µM (inactive) | > 100 µM (inactive) | > 100 µM (inactive) | > 100 µM (inactive) | > 100 µM (inactive) | > 100 µM (inactive) | 62.1 µM (inactive) | > 100 µM (inactive) | > 100 µM (inactive) | > 100 µM (inactive) | > 100 µM (inactive) | > 100 µM (inactive) | 97.1 µM (inactive) | 
3 | c1cn[nH]c1 [PYRAZOLE] | > 10 µM (inactive) | > 10 µM (inactive) | > 10 µM (inactive) |  | > 10 µM (inactive) | > 10 | > 10 µM (inactive) | > 10 µM (inactive) |  | > 10 µM (inactive) | > 10 µM (inactive) | > 10 µM (inactive) | > 10 µM (inactive) | > 10 µM (inactive) | > 10 µM (inactive) | > 10 µM (inactive) | > 10 µM (inactive) | > 10 µM (inactive) | > 10 µM (inactive) | > 10 µM (inactive)
4 | O=C(NNc1cn[nH]c(=O)n1)c1cccc2nc3ccccc3nc12 | > 100 µM (inactive) | 45.7 µM (inactive) | > 100 µM (inactive) | 85.3 µM (inactive) | 35.8 µM (inactive) | > 100 |  | 47.9 µM (inactive) | > 100 µM (inactive) | > 100 µM (inactive) | > 100 µM (inactive) | 68.2 µM (inactive) | 38.7 µM (inactive) | 30.2 µM (inactive) | > 100 µM (inactive) | 34.9 µM (inactive) | 33.4 µM (inactive) | 60.1 µM (inactive) |  | 22.4 µM (inactive)
5 | Cc1cc(Br)cc(C)c1NC(=O)C(=O)Nn1c(S)nc2ccccc2c1=O | > 100 µM (inactive) | > 100 µM (inactive) |  |  | > 100 µM (inactive) | > 100 | > 100 µM (inactive) | > 100 µM (inactive) | > 100 µM (inactive) | > 100 µM (inactive) | > 100 µM (inactive) | 33.8 µM (inactive) | > 100 µM (inactive) | > 100 µM (inactive) | > 100 µM (inactive) | > 100 µM (inactive) | > 100 µM (inactive) | > 100 µM (inactive) | > 100 µM (inactive) | > 100 µM (inactive)
6 | OCC(O)COCn1nncc1Cn1ncc2c(SCc3ccccc3)ncnc21 (stereo not drawn) | > 100 µM (inactive) | > 100 µM (inactive) | > 100 µM (inactive) | > 100 µM (inactive) | > 100 µM (inactive) | > 100 | > 100 µM (inactive) |  | > 100 µM (inactive) | > 100 µM (inactive) |  | > 100 µM (inactive) | 14.5 µM (inactive) | > 100 µM (inactive) | > 100 µM (inactive) | > 100 µM (inactive) | > 100 µM (inactive) | > 100 µM (inactive) |  | 
7 | C[C@H]1CC[C@@H]2[C@@H](C)[C@H]3[C@H](C[C@H]4[C@@H]5CC=C6C[C@@H](O)CC[C@]6(C)[C@H]5C[C@H](O)[C@]34C)N2C1 | > 100 µM (inactive) |  | > 100 µM (inactive) | > 100 µM (inactive) | > 100 µM (inactive) | > 100 | > 100 µM (inactive) | > 100 µM (inactive) | > 100 µM (inactive) | > 100 µM (inactive) | > 100 µM (inactive) | > 100 µM (inactive) | > 100 µM (inactive) | > 100 µM (inactive) | > 100 µM (inactive) | > 100 µM (inactive) | > 100 µM (inactive) | > 100 µM (inactive) | > 100 µM (inactive) | 
8 | c1cc(CNCCN2CCNCC2)ccn1 | > 100 µM (inactive) |  | > 100 µM (inactive) | > 100 µM (inactive) | > 100 µM (inactive) | > 100 | > 100 µM (inactive) | > 100 µM (inactive) | > 100 µM (inactive) | > 100 µM (inactive) | > 100 µM (inactive) | > 100 µM (inactive) | > 100 µM (inactive) | > 100 µM (inactive) | > 100 µM (inactive) | > 100 µM (inactive) | > 100 µM (inactive) | > 100 µM (inactive) | > 100 µM (inactive) | 
9 | CC(C)(C)OC(=O)[C@@H]1ON2O[C@H](OC3CCCC3(c3ccccc3)c3ccccc3)C[C@H]3OC(=O)[C@@H]1[C@H]32 (stereo partly drawn) | 83.2 µM (inactive) | > 100 µM (inactive) | 37.3 µM (inactive) | 81.8 µM (inactive) | 73.5 µM (inactive) | 31.8 | 61.1 µM (inactive) | 36.4 µM (inactive) | 40.6 µM (inactive) | 57.9 µM (inactive) | 54.3 µM (inactive) | 14.9 µM (inactive) | 34.4 µM (inactive) | > 100 µM (inactive) | 95.1 µM (inactive) | 14.8 µM (inactive) | > 100 µM (inactive) | 58.5 µM (inactive) | 25.8 µM (inactive) | 
10 | COC(OC)C1OC(CO)C(n2ccc(N)nc2=O)C1O (stereo not drawn) | > 100 µM (inactive) | > 100 µM (inactive) | > 100 µM (inactive) | > 100 µM (inactive) | > 100 µM (inactive) | > 100 | > 100 µM (inactive) | > 100 µM (inactive) | > 100 µM (inactive) | > 100 µM (inactive) | > 100 µM (inactive) | > 100 µM (inactive) | > 100 µM (inactive) | > 100 µM (inactive) | > 100 µM (inactive) | > 100 µM (inactive) | > 100 µM (inactive) | > 100 µM (inactive) | > 100 µM (inactive) | 
11 | Cc1cn2c(/C=N/NC(=N)N)c(-c3cccc([N+](=O)[O-])c3)nc2s1 | 1.95 µM (inactive) | 0.532 µM (active) |  | 1.74 µM (inactive) | 2.38 µM (inactive) | 4.41 | 1.38 µM (inactive) | 0.215 µM (active) | 1.85 µM (inactive) | 1.82 µM (inactive) | 2.01 µM (inactive) | 0.153 µM (active) | 1.08 µM (active) | 1.81 µM (inactive) | 1.29 µM (inactive) | 1.96 µM (inactive) |  | 1.71 µM (inactive) |  | 1.92 µM (inactive)
12 | ClC1(Cl)C(c2ccccc2)C1c1ccccc1 (stereo not drawn) | 23 µM (inactive) |  | 36 µM (inactive) | 42.2 µM (inactive) | 18.3 µM (inactive) | 21.6 | 23.2 µM (inactive) | 9.68 µM (inactive) | 27.7 µM (inactive) | 7.35 µM (inactive) | 13.2 µM (inactive) | 44.6 µM (inactive) | 32.4 µM (inactive) | 17.8 µM (inactive) | 41.7 µM (inactive) | 13.8 µM (inactive) | 18.8 µM (inactive) | 39.4 µM (inactive) | 46 µM (inactive) | 
13 | O=C(O)c1cc(NC2=C(Cl)C(=O)c3c(O)ccc(O)c3C2=O)ccc1O | > 10 µM (inactive) | > 10 µM (inactive) | > 10 µM (inactive) | > 10 µM (inactive) | > 10 µM (inactive) | > 10 | > 10 µM (inactive) | > 10 µM (inactive) | > 10 µM (inactive) | > 10 µM (inactive) | > 10 µM (inactive) | > 10 µM (inactive) | > 10 µM (inactive) | > 10 µM (inactive) | > 10 µM (inactive) |  | > 10 µM (inactive) | > 10 µM (inactive) | > 10 µM (inactive) | 
14 | O=C(c1ccco1)N(C(=S)OCc1ccccn1)c1ccccc1 |  | 69.8 µM (inactive) | > 100 µM (inactive) | > 100 µM (inactive) | 13.3 µM (inactive) | > 100 | 16 µM (inactive) | 75.3 µM (inactive) | > 100 µM (inactive) | > 100 µM (inactive) |  |  | > 100 µM (inactive) |  | > 100 µM (inactive) | > 100 µM (inactive) | > 100 µM (inactive) | > 100 µM (inactive) |  | > 100 µM (inactive)
15 | CC(C)=CC(=O)c1[nH]c2ccccc2c1CC(=O)NCCc1cncn1C | 68.4 µM (inactive) | 55.2 µM (inactive) | 21.9 µM (inactive) | 32.5 µM (inactive) | 25.8 µM (inactive) | > 100 |  | 30.5 µM (inactive) | 72.3 µM (inactive) | 47 µM (inactive) | 52.6 µM (inactive) | > 100 µM (inactive) | 61.8 µM (inactive) | > 100 µM (inactive) | > 100 µM (inactive) | > 100 µM (inactive) | > 100 µM (inactive) | 77.1 µM (inactive) | 52.4 µM (inactive) | 
16 | CCOC(=O)c1ccc(/N=C2/C(=S)N(c3ccc(C(=O)OCC)cc3)C(=N)N2/N=C/c2ccccc2)cc1 | 30 µM (inactive) |  | 5.06 µM (inactive) | 37.3 µM (inactive) | 27.1 µM (inactive) | 27.3 | > 10 µM (inactive) | 3.7 µM (inactive) | 11.8 µM (inactive) | > 10 µM (inactive) | 15.5 µM (inactive) |  | 16.2 µM (inactive) | 26.7 µM (inactive) | > 10 µM (inactive) | 26.1 µM (inactive) | 24.1 µM (inactive) | 17.9 µM (inactive) |  | 
